From patent US20080226596A1, “Therapeutic compositions and methods useful in treating hepatitis” (priority 2006, published 2008)

Experiments:
U266 cells = assay: U266 multiple myeloma cell growth, MTT assay; format: cell-based, human; conditions: day six cultures
Procedure: (§1) For cell proliferation assays, cells were grown in 10% FCS culture medium containing various amounts of IFNs and/or sodium stibogluconate in 96 well plates and cultured at 37° C. for 3 or 6 days as indicated. The numbers of viable cells in proliferation assays were determined by MTT assays as described in Phatak et al., J. Immunol. 167, 3391 (2001).

PRL-3 = molecular target: T1, PRL-3 (Homo sapiens, UniProt O75365); assay: In vitro PTPase assay, recombinant PRL-3, DiFMUP substrate; format: biochemical; conditions: comparable conditions
T1 construct: GST (N); made in house; host or cells: DHSa (DH5a) bacteria
Procedure: In vitro PTPase assays were used to determine the effects of compounds on recombinant PTPases, following established procedures using a synthetic phosphotyrosine peptide or DiFMUP as the substrate (Pathak et al., J. Imumol. 167, 3391 (2001)). Briefly, individual PTPases (0.1 µg/reaction) in 50 μL of PTPase buffer (50 mM Tris, pH 7.4) were incubated at 22° C. for 10 minutes or as indicated in the absence or presence of inhibitory compounds. Substrates (0.2 mM phosphotyrosine peptide) were then added and allowed to react at 22° C. for 18 hrs. PTPase activity of individual reactions was measured by adding 100 µL of malachite green solution (UBI) and then quantifying the amounts of free phosphate cleaved by the PTPase from the peptide substrate by spectrometry (OD660 nm). PTPase assays using DiFMUP as a substrate were conducted following a previously described procedure (Matter, et al., Biochem. Biophys. Res. Comm. 283, 1061 (2001)). Relative PTPase activities were calculated based on the formula: (PTPase activity in the presence of an inhibitory compound/PTPase activity in the absence of the compound)× 100%. To assess the reversibility of PTPase inhibition, GST fusion proteins of the PTPases bound on glutathione beads (Pharmacia) were pre-incubated with cold Tris buffer (50 mM Tris, pH 7.0) or Tris buffer containing the inhibitor at 4° C. for 30 minutes. The beads were then washed three times in cold Tris buffer or not washed prior to subjecting to in vitro PTPase assays.

intracellular Flag-PRL-1 = molecular target: T2, intracellular Flag-PRL-1 (Homo sapiens, UniProt Q93096); assay: Immunocomplex PTPase assay, Flag-PRL-1 NIH3T3 transfectants; format: cell-based, mouse; conditions: 5 min treatment
T2 construct: expressed in transfected cells; host or cells: NIH3T3 (A51) or WM9 (A61) transfectants, pBabepuro vector
Procedure: Immunocomplex PTPase assays were performed to assess the effects of sodium stibogluconate on intracellular PTPases. Cells were untreated or treated with sodium stibogluconate for 5 minutes, washed with fresh medium and then lysed in cold lysis buffer (50 mM Tris, pH 7.4; 150 mM NaCl; 1% NP40; 2 mM PMSF; 20, g/ml of Aprotinin). The lysates were incubated with an anti-Flag antibody in immunoprecipitation assays. The immunocomplexes were collected with protein G sepharose beads (Pharmacia) and washed in cold lysis buffer for 4 times. […] 100 µL of malachite green solution (UBI) was added to each reaction prior to measurement of OD660 to quantify the amounts of free phosphate cleaved by the PTPases from the peptide substrate (Pathak et al., J. Imumol. 167, 3391 (2001)). The remaining 10% contents of individual samples were analyzed by SDS-PAGE/Western blotting to quantify the relative amounts of the phosphatase proteins. […]
The effects of sodium stibogluconate on intracellular PTPases were assessed using NIH3T3 or WM9 transfectants. […]

DR cells = assay: DR lymphoma cell growth, MTT assay; format: cell-based, human; conditions: 100 μg/ml, day 6
Procedure: as §1

TF-1 cells = assay: TF-1 cell proliferation assay; format: cell-based, human
Procedure: (§2) The murine hematopoietic cell line Baf3 was maintained in RPMI 1640 medium supplemented with 10% fetal calf serum (FCS) and murine IL-3 (20 units/ml) as described previously in Damen et al., J. Biol. Chem. 270, 23402 (1995). Human myeloid cell line TF-1 was maintained in RPMI 1640 supplemented with 10% FCS and 40 ng/ml of recombinant human GM-CSF as described previously in Thomassen et al., Clin. Immunol. 95, 85 (2000). For cell proliferation assays, cells were washed in 10% FCS medium twice, resuspended in 10% FCS medium, incubated at 37° C. for 16 hours, and then cultured at 37° C. in 10% FCS medium containing various amounts of cytokines, sodium stibogluconate, or potassium antimonyl tartrate for 3-6 days as indicated. The cell numbers in proliferation assays were determined by an MTT assay or by microscopic cell counting as indicated.

Baf3 cells = assay: Baf3 cell proliferation assay; format: cell-based, murine
Procedure: as §2

Jurkat cells = assay: IFN-gamma secretion by Jurkat cells, ELISA; format: cell-based, human; conditions: 16 hrs
Procedure: Jurkat cells were cultured in the absence or presence of various amounts of SSG for 16 hours. The cells and culture medium supernatants were separated by centrifugation (1,000 g, 10 min). The amounts of IFN-gamma in the culture medium supernatants were quantified using an ELISA kit (R.D. system, Minneapolis, Minn.) following the manufacturer's protocol.

T1 sequence (O75365 whole entry): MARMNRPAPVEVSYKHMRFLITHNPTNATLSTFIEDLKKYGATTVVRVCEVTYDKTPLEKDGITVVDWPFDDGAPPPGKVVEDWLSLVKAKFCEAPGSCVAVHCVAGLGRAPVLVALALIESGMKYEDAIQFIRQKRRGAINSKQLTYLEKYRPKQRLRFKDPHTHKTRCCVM
T2 sequence (Q93096 whole entry): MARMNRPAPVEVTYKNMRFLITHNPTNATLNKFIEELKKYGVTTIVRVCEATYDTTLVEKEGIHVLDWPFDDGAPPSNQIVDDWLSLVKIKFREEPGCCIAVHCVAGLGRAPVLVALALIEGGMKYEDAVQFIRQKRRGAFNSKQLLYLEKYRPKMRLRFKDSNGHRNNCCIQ

With `O.O.O.O.O.O.O.O.O.O=C([O-])[C@@H]1[O][Sb]2([O-])([O][Sb]34([OH])[O][C@H]([C@H](O)CO)[C@H]([O]3)[C@H](C(=O)[O-])[O]4)[O][C@H]([C@H](O)CO)[C@@H]1[O]2.[Na+].[Na+].[Na+]` [sodium stibogluconate] the “growth inhibition of U266 cells” value (U266 cells) was “substantial growth inhibition activity”, the “inhibition of PRL-3 with DiFMUP substrate” value (PRL-3) was “also detected” and the “PTPase activity of Flag-PRL-1 immunocomplexes from treated cells” value (intracellular Flag-PRL-1) was “little PTPase activities”. The “killing of DR cells” value (DR cells) was “complete or near complete killing”, the “effect on GM-CSF-induced cell growth” value (TF-1 cells; 12.5-50 μg/ml) was “no negative effect on GM-CSF-induced cell growth” and the “GM-CSF-induced TF-1 proliferation” value (TF-1 cells; sodium stibogluconate 50 μg/ml, GM-CSF 5-40 ng/ml) was “augmented”. The “IL-3-induced Baf3 growth” value (Baf3 cells; 1,000 μg/ml) was “suppressed IL-3-induced Baf3 growth”, the “Baf3 proliferation/viability” value (Baf3 cells; absence of IL-3, day 3 culture) was “failed to support cell proliferation or maintain cell viability” and the “IFN-gamma secretion by Jurkat T cells” value (Jurkat cells) was “increased amounts of IFN-gamma”.
